Laboratory results published in ChEMBL document CHEMBL3603840, “Discovery of non-competitive thrombin inhibitor derived from competitive tryptase inhibitor skeleton: Shift in molecular recognition resulted from skeletal conversion of carboxylate into phosphonate” (Bioorg Med Chem Lett, 2015).
Active and inactive are the calls of the source. The rule behind the calls is not given here.

How the values were obtained:
Trypsin [1] = biological target: T1, Trypsin (Homo sapiens, UniProt P07477+P07478+P35030); test: Inhibition of trypsin (unknown origin) using Bz-Arg-pNA.HCl as substrate at 10 uM after 5 mins by colorimetric analysis; assay type: protein assay
Tryptase [2] = biological target: T2, Tryptase (Homo sapiens, UniProt Q9BZJ3+Q15661+Q9NRR2); test: Inhibition of tryptase (unknown origin) using t-Boc-Phe-Ser-Arg-MCA as substrate at 10 uM after 5 mins by fluorimetric analysis; assay type: protein assay
Prothrombin [3] = biological target: T3, Prothrombin (Homo sapiens, UniProt P00734); test: Inhibition of thrombin (unknown origin) using t-Boc-Val-Pro-Arg-MCA as substrate at 10 uM after 5 mins by fluorimetric analysis
Prothrombin [4] = biological target: T3, Prothrombin; test: Non-competitive inhibition of thrombin (unknown origin) using t-Boc-Val-Pro-Arg-MCA as substrate by Lineweaver-Burk plot analysis
Tryptase [5] = biological target: T2, Tryptase; test: Inhibition of tryptase (unknown origin) using t-Boc-Phe-Ser-Arg-MCA as substrate after 5 mins by fluorimetric analysis; assay type: protein assay
Prothrombin [6] = biological target: T3, Prothrombin; test: Inhibition of thrombin (unknown origin) using t-Boc-Val-Pro-Arg-MCA as substrate after 5 mins by fluorimetric analysis
Prothrombin [7] = biological target: T3, Prothrombin; test: Competitive inhibition of thrombin (unknown origin) using t-Boc-Val-Pro-Arg-MCA as substrate by Lineweaver-Burk plot analysis
Trypsin [8] = biological target: T1, Trypsin; test: Inhibition of trypsin (unknown origin) using Bz-Arg-pNA.HCl as substrate after 5 mins by colorimetric analysis; assay type: protein assay

Row | IC50 (Tryptase [5]) [µM] | IC50 (Prothrombin [6]) [µM] | inhibition (Prothrombin [7]) | IC50 (Trypsin [8]) [µM] | SMILES | inhibition (Trypsin [1]) | inhibition (Tryptase [2]) | inhibition (Prothrombin [3]) | inhibition (Prothrombin [4])
1 | – | – | – | – | CC(C)N1C(=O)c2ccc(NC(CCc3ccc(N)nc3)P(=O)(Oc3ccccc3)Oc3ccccc3)cc2C1=O (stereo not given) | inactive | inactive | inactive | –
2 | – | – | – | – | CCOP(=O)(CCc1ccc(N)nc1)Oc1ccc2c(c1)C(=O)N(C)C2=O (stereo not given) | inactive | 11% | 95% | inactive
3 | – | – | – | – | CN1C(=O)c2ccc(NC(CCc3ccc(N)nc3)P(=O)(Oc3ccccc3)Oc3ccccc3)cc2C1=O (stereo not given) | inactive | inactive | inactive | –
4 | – | – | – | – | CCOP(=O)(Cc1ccc(N)nc1)Oc1ccc2c(c1)C(=O)N(C)C2=O (stereo not given) | inactive | 5.3% | 59% | –
5 | 0.19 | 5.3 | Active | 1.2 | CN1C(=O)c2ccc(OC(=O)CCc3ccc(N)nc3)cc2C1=O.Cl | 97% | 98% | 70% | –
